PubChem BioAssay AID2060885 (Molecular Pharmacology Branch, DTP, NCI, 2025)

System: NCI-H23 complex spheroids with HUVEC/MSC, viability
Test: Anticancer human tumor NCI-H23 cell line growth inhibition [RAS];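 also: spheroids exposed to compound for 7 days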;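 as to viability, T/C: 100% = DMSO vehicle control viability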
Conditions: for IC50: curve of first compound; for viability, T/C: stronger effect = lower value
Method in brief: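 Tumour cells grown as complex spheroids with HUVEC endothelial cells and mesenchymal stem cells, treated with RAS pathway inhibitor combinations. Each agent spans half-log steps from near clinical Cmax, or 10 microM where Cmax is unknown.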

[1] = second compound 0.00316 µM, first compound 0.0316 µM
[2] = second compound 0.00316 µM, first compound 0.1 µM
[3] = second compound 0.00316 µM, first compound 0.316 µM
[4] = second compound 0.00316 µM, first compound 1 µM
[5] = second compound 0.00316 µM, first compound 3.16 µM
[6] = second compound 0.00316 µM, first compound 10 µM
[7] = second compound 0.01 µM, first compound 0.0316 µM
[8] = second compound 0.01 µM, first compound 0.1 µM
[9] = second compound 0.01 µM, first compound 0.316 µM
[10] = second compound 0.01 µM, first compound 1 µM
[11] = second compound 0.01 µM, first compound 3.16 µM
[12] = second compound 0.01 µM, first compound 10 µM
[13] = second compound 0.0316 µM, first compound 0.0316 µM
[14] = second compound 0.0316 µM, first compound 0.1 µM
[15] = second compound 0.0316 µM, first compound 0.316 µM
[16] = second compound 0.0316 µM, first compound 1 µM
[17] = second compound 0.0316 µM, first compound 3.16 µM
[18] = second compound 0.0316 µM, first compound 10 µM
[19] = second compound 0.1 µM, first compound 0.0316 µM
[20] = second compound 0.1 µM, first compound 0.1 µM
[21] = second compound 0.1 µM, first compound 0.316 µM
[22] = second compound 0.1 µM, first compound 1 µM
[23] = second compound 0.1 µM, first compound 3.16 µM
[24] = second compound 0.1 µM, first compound 10 µM
[25] = second compound 0.316 µM, first compound 0.0316 µM
[26] = second compound 0.316 µM, first compound 0.1 µM
[27] = second compound 0.316 µM, first compound 0.316 µM
[28] = second compound 0.316 µM, first compound 1 µM
[29] = second compound 0.316 µM, first compound 3.16 µM
[30] = second compound 0.316 µM, first compound 10 µM
[31] = second compound 1 µM, first compound 0.0316 µM
[32] = second compound 1 µM, first compound 0.1 µM
[33] = second compound 1 µM, first compound 0.316 µM
[34] = second compound 1 µM, first compound 1 µM
[35] = second compound 1 µM, first compound 3.16 µM
[36] = second compound 1 µM, first compound 10 µM

CC1(O)CCCC1n1c(=O)c(C(F)F)cc2cnc(NC3CCN(S(C)(=O)=O)CC3)nc21 (stereo unspecified) + C=CC(=O)N1CCN(c2nc(OCC3CCCN3C)nc3c(F)c(-c4nc(N)cc(C)c4C(F)(F)F)c(Cl)cc23)C(C)C1
IC50 (second compound 0.00316 µM): < 31.6 nM | IC50 (second compound 0.01 µM): < 31.6 nM | IC50 (second compound 0.0316 µM): < 31.6 nM | IC50 (second compound 0.1 µM): < 31.6 nM | IC50 (second compound 0.316 µM): < 31.6 nM | IC50 (second compound 1 µM): < 31.6 nM | viability, T/C [1]: 46.8% | viability, T/C [2]: 41.8% | viability, T/C [3]: 30.8% | viability, T/C [4]: 29.7% | viability, T/C [5]: 28.1% | viability, T/C [6]: 6.28% | viability, T/C [7]: 44.6% | viability, T/C [8]: 32.1% | viability, T/C [9]: 24.9% | viability, T/C [10]: 27.3% | viability, T/C [11]: 25.9% | viability, T/C [12]: 4.38% | viability, T/C [13]: 36.1% | viability, T/C [14]: 26.5% | viability, T/C [15]: 23.1% | viability, T/C [16]: 25.3% | viability, T/C [17]: 26.5% | viability, T/C [18]: 3.8% | viability, T/C [19]: 34.6% | viability, T/C [20]: 28.7% | viability, T/C [21]: 22.1% | viability, T/C [22]: 22.6% | viability, T/C [23]: 23.6% | viability, T/C [24]: 4.58% | viability, T/C [25]: 31.2% | viability, T/C [26]: 23.1% | viability, T/C [27]: 22.4% | viability, T/C [28]: 20.3% | viability, T/C [29]: 27.6% | viability, T/C [30]: 3.96% | viability, T/C [31]: 27.1% | viability, T/C [32]: 25.9% | viability, T/C [33]: 21% | viability, T/C [34]: 22% | viability, T/C [35]: 23.5% | viability, T/C [36]: 2.26%

CCN1CCN(Cc2ccc(Nc3ncc(F)c(-c4cc(F)c5nc(C)n(C(C)C)c5c4)n3)nc2)CC1 + C=CC(=O)N1CCN(c2nc(OCC3CCCN3C)nc3c(F)c(-c4nc(N)cc(C)c4C(F)(F)F)c(Cl)cc23)C(C)C1
IC50 (second compound 0.00316 µM): 15.3 nM | IC50 (second compound 0.01 µM): 3.55 nM | IC50 (second compound 0.0316 µM): < 3.16 nM | IC50 (second compound 0.1 µM): < 3.16 nM | IC50 (second compound 0.316 µM): < 3.16 nM | IC50 (second compound 1 µM): < 3.16 nM | viability, T/C (second compound 0.00316 µM, first compound 0.00316 µM): 55.6% | viability, T/C (second compound 0.00316 µM, first compound 0.01 µM): 58.2% | viability, T/C [1]: 38.2% | viability, T/C [2]: 26.9% | viability, T/C [3]: 26.1% | viability, T/C [4]: 23.9% | viability, T/C (second compound 0.01 µM, first compound 0.00316 µM): 49.9% | viability, T/C (second compound 0.01 µM, first compound 0.01 µM): 46.7% | viability, T/C [7]: 30.1% | viability, T/C [8]: 23.6% | viability, T/C [9]: 17.4% | viability, T/C [10]: 18.6% | viability, T/C (second compound 0.0316 µM, first compound 0.00316 µM): 44.4% | viability, T/C (second compound 0.0316 µM, first compound 0.01 µM): 37.3% | viability, T/C [13]: 24.1% | viability, T/C [14]: 21.8% | viability, T/C [15]: 17.2% | viability, T/C [16]: 20.1% | viability, T/C (second compound 0.1 µM, first compound 0.00316 µM): 36.4% | viability, T/C (second compound 0.1 µM, first compound 0.01 µM): 29.3% | viability, T/C [19]: 23.2% | viability, T/C [20]: 19.4% | viability, T/C [21]: 19.4% | viability, T/C [22]: 18.3% | viability, T/C (second compound 0.316 µM, first compound 0.00316 µM): 34.3% | viability, T/C (second compound 0.316 µM, first compound 0.01 µM): 31.7% | viability, T/C [25]: 21.9% | viability, T/C [26]: 20.5% | viability, T/C [27]: 16.6% | viability, T/C [28]: 17.2% | viability, T/C (second compound 1 µM, first compound 0.00316 µM): 28.7% | viability, T/C (second compound 1 µM, first compound 0.01 µM): 33.8% | viability, T/C [31]: 26.2% | viability, T/C [32]: 20.1% | viability, T/C [33]: 17.8% | viability, T/C [34]: 17.1%

C[C@@H](NC(=O)c1ncnc(N)c1Cl)c1ncc(C(=O)Nc2cc(C(F)(F)F)c(Cl)cn2)s1 + C=CC(=O)N1CCN(c2nc(OCC3CCCN3C)nc3c(F)c(-c4nc(N)cc(C)c4C(F)(F)F)c(Cl)cc23)C(C)C1
IC50 (second compound 0.00316 µM): > 10000 nM | IC50 (second compound 0.01 µM): 201 nM | IC50 (second compound 0.0316 µM): < 31.6 nM | IC50 (second compound 0.1 µM): < 31.6 nM | IC50 (second compound 0.316 µM): < 31.6 nM | IC50 (second compound 1 µM): < 31.6 nM | viability, T/C [1]: 72.2% | viability, T/C [2]: 79.4% | viability, T/C [3]: 61.5% | viability, T/C [4]: 63.1% | viability, T/C [5]: 63.2% | viability, T/C [6]: 59.6% | viability, T/C [7]: 60.9% | viability, T/C [8]: 53.3% | viability, T/C [9]: 47.8% | viability, T/C [10]: 44.7% | viability, T/C [11]: 45.8% | viability, T/C [12]: 52.4% | viability, T/C [13]: 43.6% | viability, T/C [14]: 49% | viability, T/C [15]: 38.9% | viability, T/C [16]: 38.6% | viability, T/C [17]: 42% | viability, T/C [18]: 40.4% | viability, T/C [19]: 43.3% | viability, T/C [20]: 46.5% | viability, T/C [21]: 36.2% | viability, T/C [22]: 42.2% | viability, T/C [23]: 45.9% | viability, T/C [24]: 39.1% | viability, T/C [25]: 42.1% | viability, T/C [26]: 37.3% | viability, T/C [27]: 40.8% | viability, T/C [28]: 40.6% | viability, T/C [29]: 42.7% | viability, T/C [30]: 41% | viability, T/C [31]: 36.4% | viability, T/C [32]: 44.4% | viability, T/C [33]: 45.4% | viability, T/C [34]: 42% | viability, T/C [35]: 43.6% | viability, T/C [36]: 40.5%
